Earlier results in paper PMC12281572.
Where “and” joins values, the source holds several entries; their conditions need not be identical. Equal entries are not always repeated.

Assay: FTIR, 4-fluorophenol as donor (the pK_BHX database, per the paper)
Settings: CCl4; 25 C

pK_BHX (log10 Kf of the 1:1 H-bond complex with 4-fluorophenol, by FTIR) | SMILES
1.63 log units | Clc1ccc(N=CNc2ccc(Cl)cc2)cc1
1.94 log units | COc1cccc(CN)c1
1.27 log units | CN(C)Cc1cccc(F)c1
-0.32 log units | c1ccc(C2CCCCC2)cc1
1.22 log units | CC1COC(=O)O1 (stereo not drawn)
2.36 log units | Cc1ccc(CN=CN(C)C)cc1
0.24 log units | CSC1CCCCC1
-0.47 log units | BrC1CC1
1.06 log units | CN1C(=O)CCC1=O
3.7 log units | COc1cc[n+]([O-])cc1
0.86 log units | Cc1cccc(C)c1C#N
1.47 log units | Cc1cc(C)ncn1
1.48 log units | Cc1nc2ccccc2o1
1.33 log units | CN(C)C(=S)c1ccc(N)cc1
2.6 log units | CN1CCCCC1=O
2.11 log units | CNc1ccccn1
2.48 log units | C=CCN=CN(C)C
1.82 log units | CCN(CC)c1ccc(C(C)=O)cc1
-0.32 log units and -0.48 log units | CSc1ccccc1
1.23 log units | CN(C)C=NC(=S)c1ccccc1
1.36 log units | CC(=Nc1ccc(Br)cc1)N(C)c1ccccc1
1.74 log units | CN(C=O)c1ccccc1
0.34 log units | CC12CCC(CC1=S)C2(C)C (stereo not drawn)
1.01 log units | CCOC(=O)c1cccc(C)c1
1.2 log units | O=C1CCCCCCCCCC1

pK_BHX (log10 Kf of the 1:1 H-bond complex with 4-fluorophenol, by FTIR) | SMILES
0.65 log units | N#Cc1cccc(Br)c1
0.83 log units | N#Cc1ccc(-c2ccccc2)cc1
1.97 log units | Cc1cccc(CN)c1
2.92 log units | CN(C)C1=CC(=O)CC(C)(C)C1
-0.45 log units | Cc1cc(C(C)(C)C)nc(C(C)(C)C)c1
1.08 log units | COC(=O)c1ccc(OC)cc1
0.68 log units | c1ccc(N2CCCCC2)cc1
0.97 log units | CC(C)(C)OC(=O)c1ccccc1
-0.34 log units | CCC(CC)N(C(C)C)C(C)C
2.21 log units | CNC(C)(C)C
1.05 log units | CC(=Nc1cccc(Cl)c1)N(C)c1cccc(Cl)c1
1.94 log units | CC(=O)N(c1ccccc1)c1ccccc1
1.23 log units | CN1C(C)(C)CCCC1(C)C
1.97 log units | O=c1cccccc1
1.37 log units | CNCCC#N
2.38 log units | CN1CCCC1=O
2.48 log units | COc1ccccc1C(=O)N(C)C
1.33 log units | C1N2CN3CN1CN(C2)C3
-0.43 log units | C#CCCC#C
1.29 log units | CC(C)(C)N=Cc1ccccc1
0.92 log units | CC(=O)c1ccc(C(C)=O)cc1
2.22 log units | Cn1cncc1Br
0.55 log units | COC(OC)OC
1.82 log units | CC(=Nc1ccc(C)cc1)N(C)c1ccc(C)cc1
0.69 log units | O=c1occo1

pK_BHX (log10 Kf of the 1:1 H-bond complex with 4-fluorophenol, by FTIR) | SMILES
2.24 log units | CCC(=O)NC
1.18 log units | c1ccc(-c2nc3ccccc3o2)cc1
3.59 log units | CCCCCCCCP(=O)(CCCCCCCC)CCCCCCCC
1.29 log units | CCN(CC)C(=S)N(C)C
1.29 log units | c1ccc(N=C(Nc2ccccc2)c2ccccc2)cc1
0.09 log units | FC1CCCCC1
1.3 log units | CC(=O)c1ccc(C23CC4CC(CC(C4)C2)C3)cc1
1.3 log units | CC(=O)C12CC3CC(CC(C3)C1)C2
0.68 log units | c1ccc2oncc2c1
1.43 log units | NCc1cccc(C(F)(F)F)c1
1.52 log units | FC(F)(F)c1cccc(C2=NCCC2)c1
0.78 log units | CC(=O)c1ccc(C(F)(F)F)cc1
2.53 log units | CN1CCCCCC1=O
0.0 log units | FC12CC3CC(C1)CC(F)(C3)C2
0.12 log units | CSC
2.24 log units | CC(=NC#N)N(C)C
1.25 log units | CC(=O)c1ccc(C(C)(C)C)cc1
-0.18 log units | ClC12CC3CC(CC(C3)C1)C2
2.89 log units | CCN(CC)c1ccncc1
-0.19 log units | IC12CC3CC(CC(C3)C1)C2
2.72 log units | CN=C(c1ccc(C)cc1)N(C)C
1.11 log units | CC(C)OC(C)C
-0.23 log units | CC(C)(C)c1cc(C(C)(C)C)cc(C(C)(C)C)c1
-0.1 log units | CCC#CCC

SMILES | pK_BHX (log10 Kf of the 1:1 H-bond complex with 4-fluorophenol, by FTIR)
O=S(c1ccc(Cl)cc1)c1ccc(Cl)cc1 | 1.68 log units
C=CCNCC=C | 1.7 log units
CNCc1ccccc1 | 1.82 log units
C1CNCCN1 | 2.11 log units
CN(C)c1ccccn1 | 1.61 log units
Cc1ccccc1C | -0.27 log units
O=C1c2ccccc2-c2ccccc21 | 1.09 log units
COC(=O)c1ccccc1 | 0.89 log units
c1ccc2ncccc2c1 | 1.89 log units
CN(C)C(=S)N(C)C | 1.35 log units
C#Cc1ccccc1 | -0.44 log units and -0.6 log units
C1=CCCCC1 | -0.82 log units
c1ccc(Sc2ccccc2)cc1 | -0.51 log units and -0.93 log units
Cc1ccc(O)cc1 | 0.03 log units
Clc1ccccn1 | 1.05 log units
[O-][n+]1ccccc1 | 2.72 log units
CCN(C(C)C)C(C)C | 1.05 log units
c1ccc(Cc2ccccc2)cc1 | -0.41 log units
CCCO | 1.0 log units
NC12CC3CC(CC(C3)C1)C2 | 2.3 log units

SMILES | pK_BHX (log10 Kf of the 1:1 H-bond complex with 4-fluorophenol, by FTIR)
Cc1ccccc1C#N | 0.83 log units
Cc1ccncc1 | 2.07 log units
CCOC(=O)C=Cc1ccccc1 | 1.14 log units
COc1ccc(Cl)cc1 | -0.25 log units
FCCCF | -0.27 log units
COc1ccccc1C(C)=O | 1.34 log units
N#Cc1ccccc1 | 0.8 log units
CC(=O)n1ccnc1 | 1.86 log units
C1C2CC3CC1CC(C2)C31OOC12C1CC3CC(C1)CC2C3 (stereo not drawn) | 0.63 log units
Ic1ccccc1 | -0.64 log units
COC=O | 0.65 log units
Cc1ccccn1 | 2.03 log units
Fc1ccccn1 | 0.95 log units
Fc1cccc(F)n1 | 0.14 log units
CC(=O)c1ccc([N+](=O)[O-])cc1 | 0.57 log units and 0.15 log units
C1COC1 | 1.36 log units
OCCc1ccccc1 | 0.97 log units
CN(C)c1ccc(C=O)cc1 | 1.53 log units
c1ccc2cnccc2c1 | 1.94 log units
Fc1cccnc1 | 1.35 log units
